Measured values: patent publication US11896593B2, “Sulfamate derivative compounds for use in treating or alleviating a psychiatric disorder” (Bio-Pharm Solutions Co., Ltd., priority 2020, dated 2024)
Marks after values point to notes of the source that are not given here.

What was measured:
ICR male mice = assay: Forced swim test (mouse, mFST); format: in vivo; conditions: for Immobile posture time (sec.)/4 minutes, Treatment: mouse, administered orally 60 minutes before testing
Procedure: (§1) In order to determine the anti-depressant effect in rodents, the forced swim test was performed with rats and mice. The forced swim test causes an immobile state by forcing an animal to swim in a confined space. It reflects a state of despair giving up evading such a circumstance. ICR male mice (25 g to 30 g) and Wistar male rats (240 g to 260 g) were purchased from Samtako Bio Korea Co. (Korea) and allowed to acclimatize for 1 week before being tested in a controlled animal facility (temperature 22±2° C., humidity 55±5%). The test compound was dissolved in 20% Tween80 and administered orally 60 minutes before testing. The control group was provided with a corresponding vehicle. […] 15 minutes of forced swimming was performed a day before the experiment. On the day of the experiment, the animal was placed in the cylinder 60 minutes after the administration of the compound and was videotaped for 6 minutes. In the recorded videos, time during which the animal placed its head on the water and remained still without movement was measured based on the remaining 4 minutes excluding the first 2 minutes. It was evaluated that the lower the value of the immobile posture time, the greater the anti-depressant action (Reference; Porsolt R D, Le Pichon M. Jalfre M. 1997. Depression: a new animal model sensitive to antidepressant treatments. Nature. April 21; 266(5604):730-2.).
(§2) The result was shown as the standard error of measurement (SEM) of mean value t mean value. Behavioral data were analyzed by one-way ANOVA. For statistical significance, a value of <0.05 was taken (***p<0.001, **p=0.001˜0.01, *p=0.01˜0.05). Data management and statistics were performed using the Prism software of Windows version 4 (GraphPad Softward Co., San Diego, CA, USA).
(§3) Based on the results of Table 7, the ED50 value of the compound of Example 2 was calculated and shown in Table 7, and after 30 mg/kg and 60 mg/kg of the compounds of the other remaining examples were administered based on TD50 values to perform the forced swim tests, respectively, the administration doses with protected efficacy and protection % at the corresponding administration doses were shown in Table 7.

Wistar male rats = assay: Forced swim test (rat, rFST); format: in vivo; conditions: for Immobile posture time (sec.)/4 minutes, Treatment: rat, administered orally 60 minutes before testing
Procedure: as §1, §2, §3

CC1(C)O[C@@H](COS(N)(=O)=O)[C@H](c2ccccc2Cl)O1 [Example 2, ((4S,5S)-5-(2-chlorophenyl)-2,2-dimethyl-1,3-dioxolan-4-yl)methyl sulfamate]
ED50 (ICR male mice; mouse forced swim test, po): 23.5 mg/kg | Immobile posture time (sec.)/4 minutes, Treatment (ICR male mice; 10 mg/kg): 105.7 ± 6.9** sec./4 minutes | Immobile posture time (sec.)/4 minutes, Treatment (ICR male mice; 20 mg/kg): 80.5 ± 8.6** sec./4 minutes | Immobile posture time (sec.)/4 minutes, Treatment (ICR male mice; 40 mg/kg): 61.2 ± 20.1** sec./4 minutes | ED50 (Wistar male rats; rat forced swim test, po): 13.3 mg/kg | Immobile posture time (sec.)/4 minutes, Treatment (Wistar male rats; 5 mg/kg): 160.7 ± 3.8 sec./4 minutes | Immobile posture time (sec.)/4 minutes, Treatment (Wistar male rats; 10 mg/kg): 117.3 ± 12.2** sec./4 minutes | Immobile posture time (sec.)/4 minutes, Treatment (Wistar male rats; 20 mg/kg): 51.0 ± 11.6** sec./4 minutes
